Earlier results, collected in PMC10410440, “Preclinical PK investigation of a novel IDO1/TDO dual inhibitor—SHR9146 in mouse plasma and tissues by LC-MS/MS” (Frontiers in Oncology, 2023).

Set-up: method as in PMID 31221619
Details: phase III trial; epacadostat combined with a PD-1 checkpoint inhibitor compared with pembrolizumab alone; cited from earlier work

NS(=O)(=O)NCCNc1nonc1C(=NO)Nc1ccc(F)c(Br)c1 [epacadostat]
progression-free survival rate: no significant improvement
